Experimental findings from patent publication US8324258B2, “F1F0-ATPase inhibitors and related methods” (The Regents of the University of Michigan, priority 2007, dated 2012) are described below.

Experiment [1] deals with T1, F1F0-ATPase (Bos taurus, UniProt P13621). In words: Inhibition of ATP synthesis by the F1F0-ATPase. The class given is biochemical. The note with it: IC40: concentration for 40% inhibition. As to the method: (§1) The compounds listed in Table 9 were tested for activity against F1F0-ATPase by measuring ATP synthesis and ATP hydrolysis. In addition, the compounds were assessed for cytotoxicity in Ramos cells Inhibition of ATP synthesis and hydrolysis by the F1F0-ATPase and cytotoxicity in Ramos cells was measured as described in K. M. Johnson et al. Chemistry & Biology 2005, 12, 485-496.

In experiment [2] the target is T1, F1F0-ATPase. Put plainly: Inhibition of ATP hydrolysis by the F1F0-ATPase. The class given is biochemical. The note with it: IC40: concentration for 40% inhibition. As to the method: as §1
For a further experiment, the system named is Ramos cells. Put plainly: Cytotoxicity (cell death) in Ramos cells. It counts as cell-based. As to the method: as §1

Molecules are shown by their SMILES.

Take `CCc1ccccc1NC(=NC(=O)c1cccc(Cl)c1)NCCc1c[nH]cn1` [III-41]: the “ATP Synthesis (IC40 μM)” value at F1F0-ATPase [1] was greater than 10 µM. Besides, the “ATP Hydrolysis (IC40 μM)” value on F1F0-ATPase [2] was greater than 10 µM. The compound further came in with an EC50 in the experiment with Ramos cells (Ramos cells) greater than 30 µM.
Take `COc1ccccc1NC(=NC(=O)c1cccc(Cl)c1)NCCc1c[nH]cn1` [III-11, (Z/E)-N-((2-(1H-imidazol-4-yl)ethylamino)(2-methoxyphenylamino)methylene)-3-chlorobenzamide]: the “ATP Synthesis (IC40 μM)” value at F1F0-ATPase [1] was greater than 10 µM. Moreover, on F1F0-ATPase [2], the “ATP Hydrolysis (IC40 μM)” value was greater than 30 µM. The compound also gave an EC50 in the experiment with Ramos cells (Ramos cells) greater than 30 µM.
On to `O=C(N=C(NCCc1c[nH]cn1)Nc1cccc2ccccc12)c1cccc(Cl)c1` [III-27, (Z/E)-N-((2-(1H-imidazol-4-yl)ethylamino)(naphthalen-1-ylamino)methylene)-3-chlorobenzamide], for which the “ATP Synthesis (IC40 μM)” value at F1F0-ATPase [1] is less than 10 µM. The “ATP Hydrolysis (IC40 μM)” value on F1F0-ATPase [2] is greater than 10 µM. For the same compound, the EC50 in the experiment with Ramos cells (Ramos cells) is greater than 10 µM.
Taken in the same sequence, the figures for `Cc1cccc(C(=O)N=C(NCCc2c[nH]cn2)Nc2ccc(-c3ccccc3)cc2)c1` [II-2, (Z/E)-N-((2-(1H-imidazol-4-yl)ethylamino)(biphenyl-4-ylamino)methylene)-3-methylbenzamide] were greater than 10 µM, greater than 10 µM and greater than 30 µM.
The corresponding values for `Cc1cccc(NC(=NC(=O)c2cccc(Cl)c2)NCCc2c[nH]cn2)c1` [III-9, (Z/E)-N-((2-(1H-imidazol-4-yl)ethylamino)(m-toluidino)methylene)-3-chlorobenzamide] are greater than 10 µM, greater than 20 µM and greater than 30 µM.
In the case of `O=C(/N=C(/NCCc1c[nH]cn1)Nc1cccc2[nH]ccc12)c1cccc(Cl)c1` [Compound V-1, (Z/E)-N-((2-(1H-imidazol-4-yl)ethylamino)(1H-indol-4-ylamino)methylene)-3-chlorobenzamide], on F1F0-ATPase [1], the “ATP Synthesis (IC40 μM)” value was greater than 10 µM. In addition, the “ATP Hydrolysis (IC40 μM)” value at F1F0-ATPase [2] is greater than 10 µM. The compound further gave an EC50 in the experiment on Ramos cells (Homo sapiens, Ramos) greater than 30 µM.
Consider `O=C(N=C(NCCc1c[nH]cn1)Nc1ccc(-c2ccccc2)cc1)c1cccc(C(F)(F)F)c1` [II-4, (Z/E)-N-((2-(1H-imidazol-4-yl)ethylamino)(biphenyl-4-ylamino)methylene)-3-(trifluoromethyl)benzamide], for which the “ATP Synthesis (IC40 μM)” value on F1F0-ATPase [1] is greater than 10 µM. In addition, at F1F0-ATPase [2], the “ATP Hydrolysis (IC40 μM)” value was greater than 10 µM. The compound also yielded an EC50 with Ramos cells (Ramos cells) of less than 10 µM.
Turning to `O=C(N=C(NCCc1c[nH]cn1)Nc1ccc(C(F)(F)F)cc1)c1cccc(Cl)c1` [III-25, (Z/E)-N-((2-(1H-imidazol-4-yl)ethylamino)(4-(trifluoromethyl)phenylamino)methylene)-3-chlorobenzamide], the “ATP Synthesis (IC40 μM)” value on F1F0-ATPase [1] is greater than 10 µM. Further, the “ATP Hydrolysis (IC40 μM)” value at F1F0-ATPase [2] is less than 10 µM. In the experiment on Ramos cells (Ramos cells), this compound came in with a 50% effective concentration (EC50) greater than 10 µM.
Turning to `COc1cccc(NC(=NC(=O)c2cccc(Cl)c2)NCCc2c[nH]cn2)c1` [III-12, (Z/E)-N-((2-(1H-imidazol-4-yl)ethylamino)(3-methoxyphenylamino)methylene)-3-chlorobenzamide], the “ATP Synthesis (IC40 μM)” value at F1F0-ATPase [1] was greater than 20 µM. Also, the “ATP Hydrolysis (IC40 μM)” value at F1F0-ATPase [2] is greater than 30 µM. Further, in the experiment with Ramos cells (Ramos cells), the EC50 was greater than 30 µM.
Taken in the same sequence, the figures for `CS(=O)(=O)c1ccccc1NC(=NC(=O)c1cccc(Cl)c1)NCCc1cnc[nH]1` [III-38, (Z/E)-N-((2-(1H-imidazol-5-yl)ethylamino)(2-(methylsulfonyl)phenylamino)methylene)-3-chlorobenzamide] were greater than 20 µM, greater than 30 µM and greater than 30 µM.
The corresponding values for `O=C(N=C(NCCc1c[nH]cn1)Nc1cccc(F)c1)c1cccc(Cl)c1` [III-15, (Z/E)-N-((2-(1H-imidazol-4-yl)ethylamino)(3-fluorophenylamino)methylene)-3-chlorobenzamide] are greater than 20 µM, greater than 30 µM and greater than 30 µM.
In the case of `O=C(N=C(NCCc1c[nH]cn1)Nc1ccccc1-c1ccccc1)c1ccccc1` [Compound I-7, (Z/E)-N-((2-(1H-imidazol-4-yl)ethylamino)(biphenyl-2-ylamino)methylene)benzamide], the “ATP Synthesis (IC40 μM)” value on F1F0-ATPase [1] was greater than 20 µM. In addition, at F1F0-ATPase [2], the “ATP Hydrolysis (IC40 μM)” value is greater than 30 µM. This compound also returned an EC50 in the experiment with Ramos cells (Ramos cells) greater than 30 µM.
The corresponding values for `CCc1ccc(NC(=NC(=O)c2cccc(Cl)c2)NCCc2c[nH]cn2)cc1` [III-43, (Z/E)-N-((2-(1H-imidazol-4-yl)ethylamino)(4-ethylphenylamino)methylene)-3-chlorobenzamide] are greater than 10 µM, greater than 20 µM and greater than 10 µM.
For `O=C(/N=C(\Nc1ccc(-c2ccccc2)cc1)Nc1cccc2[nH]ccc12)c1cccc(Cl)c1` [IV-1, (Z/E)-N-((1H-indol-4-ylamino)(biphenyl-4-ylamino)methylene)-3-chlorobenzamide], on F1F0-ATPase [1], the “ATP Synthesis (IC40 μM)” value is greater than 10 µM. For the same compound, on F1F0-ATPase [2], the “ATP Hydrolysis (IC40 μM)” value was greater than 30 µM. In the experiment with Ramos cells (Homo sapiens, Ramos), this compound returned an EC50 greater than 10 µM.
Consider `O=C(N=C(NCCc1c[nH]cn1)Nc1ccc(-c2ccccc2)cc1)c1ccc(Cl)c(Cl)c1` [II-16, (Z/E)-N-((2-(1H-imidazol-4-yl)ethylamino)(biphenyl-4-ylamino)methylene)-3,4-dichlorobenzamide], for which the “ATP Synthesis (IC40 μM)” value at F1F0-ATPase [1] is less than 10 µM. Moreover, the “ATP Hydrolysis (IC40 μM)” value at F1F0-ATPase [2] is less than 10 µM. In the experiment with Ramos cells (Ramos cells), this compound gave an EC50 of less than 10 µM.
In the case of `Cc1ccc(C(=O)N=C(NCCc2c[nH]cn2)Nc2ccc(-c3ccccc3)cc2)cc1` [II-3, (Z/E)-N-((2-(1H-imidazol-4-yl)ethylamino)(biphenyl-4-ylamino)methylene)-4-methylbenzamide], at F1F0-ATPase [1], the “ATP Synthesis (IC40 μM)” value is greater than 10 µM. Also, at F1F0-ATPase [2], the “ATP Hydrolysis (IC40 μM)” value was greater than 10 µM. The compound also registered an EC50 with Ramos cells (Ramos cells) of less than 10 µM.
For `Cc1cccc(-c2ccc(NC(=NC(=O)c3cccc(Cl)c3)NCCc3c[nH]cn3)cc2)c1` [III-31, (Z/E)-N-((2-(1H-imidazol-4-yl)ethylamino)(3′-methylbiphenyl-4-ylamino)methylene)-3-chlorobenzamide], the “ATP Synthesis (IC40 μM)” value on F1F0-ATPase [1] is greater than 10 µM. In addition, at F1F0-ATPase [2], the “ATP Hydrolysis (IC40 μM)” value is greater than 10 µM. Further, the EC50 in the experiment on Ramos cells (Ramos cells) was less than 10 µM.
Regarding `O=C(N=C(NCCc1c[nH]cn1)Nc1ccccc1-c1ccccc1)c1cccc(Cl)c1` [Compound I-8, (Z/E)-N-((2-(1H-imidazol-4-yl)ethylamino)(biphenyl-2-ylamino)methylene)-3-chlorobenzamide], the “ATP Synthesis (IC40 μM)” value on F1F0-ATPase [1] was greater than 10 µM. For the same compound, at F1F0-ATPase [2], the “ATP Hydrolysis (IC40 μM)” value was greater than 10 µM. For the same compound, in the experiment with Ramos cells (Ramos cells), the EC50 is greater than 20 µM.
For the compound `O=C(N=C(NCCc1c[nH]cn1)Nc1ccc(-c2ccccc2)cc1)c1ccc(Br)cc1` [II-11, (Z/E)-N-((2-(1H-imidazol-4-yl)ethylamino)(biphenyl-4-ylamino)methylene)-4-bromobenzamide], on F1F0-ATPase [1], the “ATP Synthesis (IC40 μM)” value is greater than 10 µM. Also, at F1F0-ATPase [2], the “ATP Hydrolysis (IC40 μM)” value was greater than 20 µM. This compound showed an EC50 in the experiment with Ramos cells (Ramos cells) greater than 30 µM.
The corresponding values for `O=C(N=C(NCCc1c[nH]cn1)Nc1ccccc1Cl)c1cccc(Cl)c1` [III-17, (Z/E)-N-((2-(1H-imidazol-4-yl)ethylamino)(2-chlorophenylamino)methylene)-3-chlorobenzamide] are greater than 10 µM, greater than 20 µM and greater than 30 µM.
The corresponding values for `O=C(N=C(NCCc1c[nH]cn1)Nc1cccc(-c2ccccc2)c1)c1ccc(Cl)cc1` [VI-14, (Z/E)-N-((2-(1H-imidazol-4-yl)ethylamino)(biphenyl-3-ylamino)methylene)-4-chlorobenzamide] are less than 10 µM, greater than 10 µM and greater than 10 µM.
With `O=C(/N=C(/NCCc1cn[nH]c1)Nc1ccc(-c2ccccc2)cc1)c1cccc(Cl)c1` [IV-4, (Z/E)-N-((2-(1H-pyrazol-4-yl)ethylamino)(biphenyl-4-ylamino)methylene)-3-chlorobenzamide], the “ATP Synthesis (IC40 μM)” value at F1F0-ATPase [1] was less than 10 µM. Further, the “ATP Hydrolysis (IC40 μM)” value at F1F0-ATPase [2] was greater than 10 µM. In the experiment with Ramos cells (Homo sapiens, Ramos), this compound returned a concentration giving a half-maximal response (EC50) of less than 10 µM.
As for `O=C(N=C(NCCc1c[nH]cn1)Nc1cccc(-c2ccccc2)c1)c1ccc(Br)cc1` [VI-11, (Z/E)-N-((2-(1H-imidazol-4-yl)ethylamino)(biphenyl-3-ylamino)methylene)-4-bromobenzamide], the “ATP Synthesis (IC40 μM)” value at F1F0-ATPase [1] is less than 10 µM. In addition, the “ATP Hydrolysis (IC40 μM)” value on F1F0-ATPase [2] was greater than 10 µM. In the experiment with Ramos cells (Ramos cells), this compound came in with an EC50 of less than 10 µM.
Taken in the same sequence, the figures for `O=C(N=C(NCCc1c[nH]cn1)Nc1cccc(C(F)(F)F)c1)c1cccc(Cl)c1` [III-24, (Z/E)-N-((2-(1H-imidazol-4-yl)ethylamino)(3-(trifluoromethyl)phenylamino)methylene)-3-chlorobenzamide] were less than 10 µM, less than 10 µM and greater than 10 µM.
In the case of `N#Cc1ccc(-c2ccc(NC(=NC(=O)c3cccc(Cl)c3)NCCc3c[nH]cn3)cc2)cc1` [III-21, (Z/E)-N-((2-(1H-imidazol-4-yl)ethylamino)(4′-cyanobiphenyl-4-ylamino)methylene)-3-chlorobenzamide], the “ATP Synthesis (IC40 μM)” value at F1F0-ATPase [1] is less than 10 µM. The “ATP Hydrolysis (IC40 μM)” value on F1F0-ATPase [2] was greater than 30 µM. Also, the 50% effective concentration (EC50) with Ramos cells (Ramos cells) is less than 10 µM.
The corresponding values for `O=C(N=C(NCCc1c[nH]cn1)Nc1ccccc1Br)c1cccc(Cl)c1` [III-2, (Z/E)-N-((2-(1H-imidazol-4-yl)ethylamino)(2-bromophenylamino)methylene)-3-chlorobenzamide] are less than 10 µM, greater than 20 µM and greater than 20 µM.
